# Laboratory results reported in patent US6506745B1, “Medicinal compositions for treatment of atrial fibrillation” (Noboru Kaneko, priority 1998, dated 2003).
# How the values were obtained:
# [1] = tested on: atrial fibrillation induced by means of electrical stimulation; test: Atrial fibrillation induced by electrical stimulation in chronically paced right atrium; assay type: in vivo, hybrid of a labrador and beagle
# From the text: In the experimental test, a hybrid of a labrador and beagle was used. An electrode for electrical excitation was embedded in the right atrium. From a week after the operation, the right atrium was subjected to a continuous pacing at an excitation frequency of 400 or 600 bpm by an external pacemaker. Further, for 31 day, the right atrium was subjected to a pacing giving a burst excitation (10 mA,50 Hz,1 sec) 5 days a week and several hours a day. Compound 1 was continuously injected into forearm vein (0.3mg/kg/min×2 min+0.03 mg/kg/min). At 20 minutes before and after administrating, the excitation current (50 Hz, 1 sec) was increased from 3 mA to 10 mA in increments of 0.5 mA to determine each atrial fibrillation threshold (AFT). Then, the atrial fibrillation duration (AF duration) and the interval (FF interval) of atrial fibrillation waves, which were generated by the excitation current of 10 mA, were measured. In FIG. 1, the mean value of the AF duration before administration was 35.1±9.0 sec, and the mean value after administration was 12.1±1.9 sec. In FIG. 2, the mean value of the FF interval before administration was 51.3±1.7 msec, and the mean value after administration was 61.7±1.8 msec.
# right atrial muscle = test: Active potential duration (APD90) of isolated right atrial muscle under electrical stimulation; assay type: cell-based, beagle; conditions: 90 minutes after adding
# Experimental: A beagle was used in the experimental test. Its right atrial. muscle was surgically extracted, and a sample was fixed with pins within an experimental vessel which is perfused with Tyrode liquid (10 ml/min). Using an electrical stimulator, the atrial muscle was stimulated by a voltage two times greater than that of generating an active potential, and rectangular waves having pulse. width of 2 msec in a frequency of 2 Hz, and the generated active potential was measured by a glass microelectrode inserted into the cells. Compound 1 was added into the experimental vessel with condensations of 0.3 μM and 1 μM. At 90 minutes before and after adding the compound, the sample was excited with various excitation frequencies, and each active potential was recorded to. determine the duration (90% recovery time; APD90).
smiles,measurement,setting,value
"COc1ccc2c(c1)CN(C(=O)CCN1CCC(Cc3ccccc3)CC1)CCS2 [Compound 1, 4-[3-(4-benzylpiperidine-1-yl)propionyl]-7-methoxy-2,3,4,5-tetrahydro-1,4-benzothiazepine]","atrial fibrillation duration (AF duration), mean value after administration","[1]; i.v. 0.3 mg/kg/min x 2 min + 0.03 mg/kg/min, 20 minutes after administrating, excitation current 10 mA, before administration 35.1±9.0 sec",12.1 ± 1.9 s
same,"interval of atrial fibrillation waves (FF interval), mean value after administration","[1]; i.v. 0.3 mg/kg/min x 2 min + 0.03 mg/kg/min, 20 minutes after administrating, excitation current 10 mA, before administration 51.3±1.7 msec",61.7 ± 1.8 ms
same,atrial fibrillation threshold (AFT) after administration,"[1]; i.v. 0.3 mg/kg/min x 2 min + 0.03 mg/kg/min, 20 minutes after administrating, increased from 7 mA before",10 mA
same,extension of FF interval after administration,"[1]; i.v. infusion, excitation current 10 mA, FIG. 2",about 20%
same,duration (APD90) change after addition,"right atrial muscle; 0.3 μM, excitation frequency 0.67 Hz",106.0 ± 2.01%
same,duration (APD90) change after addition,"right atrial muscle; 0.3 μM, excitation frequency 1 Hz",110.1 ± 2.75%
same,duration (APD90) change after addition,"right atrial muscle; 0.3 μM, excitation frequency 2 Hz",113.0 ± 1.48%
same,duration (APD90) change after addition,"right atrial muscle; 0.3 μM, excitation frequency 3.33 Hz",111.5 ± 10.52%
same,duration (APD90) change after addition,"right atrial muscle; 1 μM, excitation frequency 0.67 Hz",112.9 ± 6.47%
same,duration (APD90) change after addition,"right atrial muscle; 1 μM, excitation frequency 1 Hz",111.3 ± 5.34%
same,duration (APD90) change after addition,"right atrial muscle; 1 μM, excitation frequency 2 Hz",118.1 ± 2.88%
same,duration (APD90) change after addition,"right atrial muscle; 1 μM, excitation frequency 3.33 Hz",124.7 ± 9.40%
